From patent US10774065B2, “1-pyridazin-/triazin-3-yl-piper(-azine)/idine/pyrolidine derivatives and compositions thereof for inhibiting the activity of SHP2” (NOVARTIS AG, priority 2014, dated 2020)
pIC50: −log10 of the molar value.

Target: SHP2 (Homo sapiens (Human), UniProt Q06124)
Test: SHP2 Allosteric Inhibition Assay (DiFMUP prompt fluorescence)
Assay type: biochemical
Settings: 0.5 nM SHP2 activated with 0.5 μM peptide IRS1_pY1172(dPEG8)pY1222; substrate DiFMUP; 25° C.

pIC50	SMILES
7.42	C[C@]1(CN)CCN(c2cnc(-c3cccc(Cl)c3Cl)c(N)n2)C[C@H]1O (single isomer, unassigned) [11 P1]
6.79	C[C@]1(CN)CCN(c2cnc(-c3cccc(Cl)c3Cl)c(N)n2)C[C@H]1O (single isomer, unassigned) [11 P2]
